Results published in ChEMBL document CHEMBL1914323, “Tricyclic aminopyrimidine histamine H4 receptor antagonists” (Bioorg Med Chem Lett, 2011).
In brackets after ≈: the same amount, converted by molar mass. Activity calls are given as the source filed them. No cut-off for these calls is given here.

What was measured:
[1] = Metabolic stability in rat liver microsomes after 15 mins; assay type: ADME, Microsome; settings: read-out: Stability
[2] = target: T1, Histamine H4 receptor (Homo sapiens, UniProt Q9H3N8); assay: Antagonist activity at recombinant human histamine H4 receptor; assay type: functional; settings: read-out: pA2 (converted)
T1 sequence (Q9H3N8 whole entry): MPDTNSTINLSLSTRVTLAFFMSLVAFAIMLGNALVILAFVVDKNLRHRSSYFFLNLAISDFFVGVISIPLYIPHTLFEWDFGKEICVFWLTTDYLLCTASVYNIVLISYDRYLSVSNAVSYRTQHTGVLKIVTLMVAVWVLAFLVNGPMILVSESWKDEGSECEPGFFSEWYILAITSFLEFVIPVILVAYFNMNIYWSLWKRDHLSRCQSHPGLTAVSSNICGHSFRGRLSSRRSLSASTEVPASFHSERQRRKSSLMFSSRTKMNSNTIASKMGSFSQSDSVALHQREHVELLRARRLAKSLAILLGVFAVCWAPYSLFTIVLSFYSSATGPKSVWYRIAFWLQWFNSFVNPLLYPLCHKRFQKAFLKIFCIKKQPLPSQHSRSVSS

[3] = target: T1, Histamine H4 receptor; assay: Displacement of [3H]histamine from recombinant human histamine H4 receptor
[4] = Metabolic stability in human liver microsomes after 15 mins; assay type: ADME, Microsome; settings: read-out: Stability
[5] = Cmax in rat at 10 mg/kg, po; assay type: ADME, organism-based; set-up: dose 10 mg/kg, route oral; settings: in vivo
[6] = Half life in dog at 2 mg/kg, iv; assay type: ADME, organism-based, Canis lupus familiaris; set-up: dose 2 mg/kg, route intravenous; settings: in vivo
[7] = Cmax in dog at 10 mg/kg, po; assay type: ADME, organism-based, Canis lupus familiaris; set-up: dose 10 mg/kg, route oral; settings: in vivo
[8] = AUC in dog at 2 mg/kg, iv; assay type: ADME, organism-based, Canis lupus familiaris; set-up: dose 2 mg/kg, route intravenous; settings: plasma
[9] = Clearance in rat at 2 mg/kg, iv; assay type: ADME, organism-based; set-up: dose 2 mg/kg, route intravenous; settings: in vivo
[10] = Apparent permeability from basolateral to apical side of human Caco2 cells; assay type: ADME, cell-based; settings: Caco-2
[11] = Oral bioavailability in rat at 10 mg/kg; assay type: ADME, organism-based; settings: in vivo
[12] = Solubility of the compound at pH 2; assay type: physicochemical; settings: buffer
[13] = Apparent permeability from apical to basolateral side of human Caco2 cells; assay type: ADME, cell-based; settings: Caco-2
[14] = Metabolic stability in dog liver microsomes assessed as half life; assay type: ADME, Canis lupus familiaris, Microsome
[15] = Half life in dog at 10 mg/kg, po; assay type: ADME, organism-based, Canis lupus familiaris; set-up: dose 10 mg/kg, route oral; settings: in vivo
[16] = Half life in rat at 2 mg/kg, iv; assay type: ADME, organism-based; set-up: dose 2 mg/kg, route intravenous; settings: in vivo
[17] = Solubility of the compound at pH 7; assay type: physicochemical; settings: buffer
[18] = AUC in rat at 2 mg/kg, iv; assay type: ADME, organism-based; set-up: dose 2 mg/kg, route intravenous; settings: plasma
[19] = Metabolic stability in human liver microsomes assessed as half life; assay type: ADME, Microsome
[20] = target: T2, Voltage-gated inwardly rectifying potassium channel KCNH2 (Homo sapiens, UniProt Q12809); assay: Inhibition of human ERG by binding assay
T2 sequence (Q12809 whole entry): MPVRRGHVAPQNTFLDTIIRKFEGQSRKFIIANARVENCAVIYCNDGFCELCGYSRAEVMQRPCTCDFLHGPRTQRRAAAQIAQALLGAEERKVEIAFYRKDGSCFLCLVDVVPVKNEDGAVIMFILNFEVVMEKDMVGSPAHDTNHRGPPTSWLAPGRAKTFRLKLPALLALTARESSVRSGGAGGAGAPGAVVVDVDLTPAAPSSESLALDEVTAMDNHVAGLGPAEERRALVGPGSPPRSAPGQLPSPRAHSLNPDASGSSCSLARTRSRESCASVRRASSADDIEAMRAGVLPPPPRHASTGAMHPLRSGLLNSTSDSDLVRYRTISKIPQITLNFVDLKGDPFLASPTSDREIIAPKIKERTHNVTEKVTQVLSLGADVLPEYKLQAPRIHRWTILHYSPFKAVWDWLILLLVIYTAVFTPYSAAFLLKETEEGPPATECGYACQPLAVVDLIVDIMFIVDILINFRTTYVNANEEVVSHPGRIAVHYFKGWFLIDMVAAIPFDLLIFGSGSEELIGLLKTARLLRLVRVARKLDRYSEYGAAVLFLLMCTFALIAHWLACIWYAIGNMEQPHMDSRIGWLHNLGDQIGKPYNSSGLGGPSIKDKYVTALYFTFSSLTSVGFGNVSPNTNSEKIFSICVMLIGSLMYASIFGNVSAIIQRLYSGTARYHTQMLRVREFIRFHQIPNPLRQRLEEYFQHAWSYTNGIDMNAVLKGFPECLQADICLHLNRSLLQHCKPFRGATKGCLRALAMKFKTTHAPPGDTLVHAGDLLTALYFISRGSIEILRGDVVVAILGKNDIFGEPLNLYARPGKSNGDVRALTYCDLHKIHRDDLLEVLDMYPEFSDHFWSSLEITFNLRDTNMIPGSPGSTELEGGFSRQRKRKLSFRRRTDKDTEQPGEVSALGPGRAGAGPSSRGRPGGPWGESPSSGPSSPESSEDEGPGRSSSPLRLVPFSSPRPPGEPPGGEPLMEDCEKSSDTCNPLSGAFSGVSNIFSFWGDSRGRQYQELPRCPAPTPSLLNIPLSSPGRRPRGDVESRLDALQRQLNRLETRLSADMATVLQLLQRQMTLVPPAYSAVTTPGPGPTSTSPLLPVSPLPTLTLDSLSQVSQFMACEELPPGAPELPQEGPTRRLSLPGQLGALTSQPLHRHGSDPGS

[21] = Fraction unbound in human plasma; assay type: ADME, cell-free
[22] = Volume of distribution at steady state in dog at 2 mg/kg, iv; assay type: ADME, organism-based, Canis lupus familiaris; set-up: dose 2 mg/kg, route intravenous; settings: in vivo, read-out: Vdss
[23] = target: T2, Voltage-gated inwardly rectifying potassium channel KCNH2; assay: Inhibition of human ERG by patch clamp technique
[24] = Fraction unbound in mouse plasma; assay type: ADME, cell-free
[25] = test system: Mus musculus; assay: Antiinflammatory activity in BALB/c mouse asthma model assessed as inhibition of ovalbumin-induced eosinophil accumulation in lung lavage at 10 mg/kg, po BID 20 mins prior to each ovalbumin challenge for 4 times measured after 24 hrs by coulter counter assay; assay type: functional, organism-based; set-up: dose 10 mg/kg
[26] = Metabolic stability in rat liver microsomes assessed as half life; assay type: ADME, Microsome
[27] = Oral bioavailability in dog at 10 mg/kg; assay type: ADME, organism-based, Canis lupus familiaris; settings: in vivo
[28] = Clearance in dog at 2 mg/kg, iv; assay type: ADME, organism-based, Canis lupus familiaris; set-up: dose 2 mg/kg, route intravenous; settings: in vivo
[29] = Volume of distribution at steady state in rat at 2 mg/kg, iv; assay type: ADME, organism-based; set-up: dose 2 mg/kg, route intravenous; settings: in vivo, read-out: Vdss
[30] = Half life in rat at 10 mg/kg, po; assay type: ADME, organism-based; set-up: dose 10 mg/kg, route oral; settings: in vivo

Structure (SMILES): CN1CCN(c2nc(N)nc3c2oc2ccc(Cl)cc23)CC1
- remaining at […] [1]: 0.3%
- Kb [2]: 2 nM
- Ki [3]: 0.1 nM
- remaining at […] [4]: 84%

Structure (SMILES): Nc1nc(N2CCC[C@H](N)C2)c2oc3ccc(Cl)cc3c2n1
- Ki [3]: 5.7 nM

Structure (SMILES): Nc1nc(N2CC[C@@H](N)C2)c2oc3ncc(Cl)cc3c2n1
- Ki [3]: 16 nM

Structure (SMILES): Nc1nc(N2C[C@@H]3CCCN[C@@H]3C2)c2oc3ccc(Cl)cc3c2n1
- Ki [3]: 21 nM

Structure (SMILES): CN[C@@H]1CCN(c2nc(N)nc3c2oc2c(Cl)cc(Cl)cc23)C1
- Ki [3]: 8 nM

Structure (SMILES): Nc1nc(N2CCC[C@@H](N)C2)c2oc3ccc(Cl)cc3c2n1
- Ki [3]: 9.1 nM

Structure (SMILES): CN1CCN(c2nc(N)nc3c2sc2cc(Cl)ccc23)CC1
- Ki [3]: 18 nM

Structure (SMILES): CN[C@@H]1CCN(c2nc(N)nc3c2sc2ccc(Cl)cc23)C1
- Ki [3]: 10 nM

Structure (SMILES): Nc1nc(N2CC[C@@H](NCCO)C2)c2oc3ccc(Cl)cc3c2n1
- Ki [3]: 46 nM

Structure (SMILES): CN[C@@H]1CCN(c2nc(N)nc3c2oc2ncc(Cl)cc23)C1
- Cmax [5]: 1200 nM
- half-life [6]: 9.7 h
- Cmax [7]: 1800 nM
- AUC [8]: 5.2 µM·h
- clearance [9]: 68.3 mL/min/kg
- Papp B→A [10]: 22 ×10⁻⁶ cm/s
- bioavailability [11]: 91%
- solubility [12]: > 0.4 µM
- Papp A→B [13]: 23 ×10⁻⁶ cm/s
- half-life [14]: > 3 h
- half-life [15]: 10.5 h
- half-life [16]: 1.2 h
- solubility [17]: > 0.4 µM
- AUC [18]: 1.6 µM·h
- half-life [19]: > 3 h
- IC50 [20]: > 10000 nM
- Kb [2]: 5.01 nM
- fraction unbound [21]: 0.43
- Ki [3]: 9.4 nM
- Vd [22]: 16.5 L/kg
- INH [23]: > 3 µM
- fraction unbound [24]: 0.18
- inhibition [25]: Active
- half-life [26]: > 1.02 h
- bioavailability [27]: 91%
- clearance [28]: 21.7 mL/min/kg
- Vd [29]: 6.9 L/kg
- half-life [30]: 6.8 h

Structure (SMILES): Cc1csc2c(N3CCN(C)CC3)ncnc12
- Ki [3]: > 205 nM

Structure (SMILES): CN1CCN(c2nc(N)nc3c2sc2ccc(Cl)cc23)CC1
- Ki [3]: 0.3 nM

Structure (SMILES): Nc1nc(N2CCNCC2)c2oc3ccc(F)c(F)c3c2n1
- Ki [3]: 156 nM

Structure (SMILES): Nc1nc(N2C[C@@H]3C[C@H]2CN3)c2oc3cccc(Cl)c3c2n1
- Ki [3]: 443 nM

Structure (SMILES): NC[C@H]1CCN(c2nc(N)nc3c2oc2ccc(Cl)cc23)C1
- Ki [3]: 137 nM

Structure (SMILES): Nc1nc(N2CCNCC2)c2oc3ccc(Cl)c(Cl)c3c2n1
- Ki [3]: 7.7 nM

Structure (SMILES): CN1CCN(c2nc(N)nc3c2oc2ccc(F)c(F)c23)CC1
- Ki [3]: 156 nM

Structure (SMILES): CN(C)C1CCN(c2ncnc3c2sc2ccccc23)CC1
- Ki [3]: > 10000 nM

Structure (SMILES): CN1CCN(c2ncnc3c2oc2ccc(Cl)cc23)CC1
- solubility [17]: 0.053 µM (≈ 0.016 µg/mL)
- half-life [19]: < 0.0833 h
- Kb [2]: 2.51 nM
- Ki [3]: 4.7 nM
- half-life [26]: < 0.0833 h

Structure (SMILES): CN1CCN(c2nc(N)nc3c4cc(Cl)ccc4[s+]([O-])c23)CC1 (stereo not drawn)
- Ki [3]: 1280 nM

Structure (SMILES): Nc1nc(N2CCNCC2)c2oc3ncc(Cl)cc3c2n1
- Ki [3]: 35 nM

Structure (SMILES): CN1CCCN(c2nc(N)nc3c2oc2ncc(Cl)cc23)CC1
- Ki [3]: 37 nM

Structure (SMILES): CN[C@@H]1CCN(c2nc(N)nc3c2sc2ccc(F)cc23)C1
- Ki [3]: 31 nM

Structure (SMILES): Nc1nc(N2C[C@@H]3C[C@H]2CN3)c2oc3ccc(Cl)cc3c2n1
- Ki [3]: 26 nM

Structure (SMILES): Nc1nc(N2C[C@H]3C[C@@H]2CN3)c2oc3ccc(Cl)cc3c2n1
- Ki [3]: 104 nM

Structure (SMILES): Nc1nc(N2C[C@@H]3C[C@H]2CN3)c2oc3ncc(Cl)cc3c2n1
- Ki [3]: > 10000 nM

Structure (SMILES): C[C@H]1CN(c2nc(N)nc3c2oc2ncc(Cl)cc23)CCN1
- Ki [3]: 885 nM

Structure (SMILES): CN1CCN(c2ncnc3c2oc2ccccc23)CC1
- half-life [19]: < 0.0833 h
- Ki [3]: 56 nM

Structure (SMILES): CN[C@@H]1CCN(c2nc(N)nc3c2oc2ccc(F)cc23)C1
- Ki [3]: 2 nM

Structure (SMILES): CN1CCN(c2nc(N)nc3c2oc2ncc(Cl)cc23)CC1
- Ki [3]: 33 nM

Structure (SMILES): Nc1nc(N2C[C@H]3CCCN[C@H]3C2)c2oc3ccc(Cl)cc3c2n1
- Ki [3]: 4.7 nM

Structure (SMILES): CNC1CCN(c2ncnc3c2sc2ccccc23)CC1
- Ki [3]: > 10000 nM

Structure (SMILES): Cc1csc2c(N3CCCN(C)CC3)ncnc12
- Ki [3]: > 10000 nM

Structure (SMILES): CN[C@@H]1CCN(c2nc(N)nc3c2oc2ccc(Br)cc23)C1
- Ki [3]: 0.7 nM

Structure (SMILES): Nc1nc(N2CC3CCNC3C2)c2oc3ncc(Cl)cc3c2n1 (stereo not drawn)
- Ki [3]: 139 nM

Structure (SMILES): CN[C@@H]1CCN(c2nc(N)nc3c2oc2ccc(Cl)cc23)C1
- Ki [3]: 0.4 nM

Structure (SMILES): CN(C)C1CCN(c2ncnc3c2sc2ccccc23)C1 (stereo not drawn)
- Ki [3]: > 10000 nM

Structure (SMILES): CN[C@@H]1CCN(c2nc(N)nc3c2oc2cccc(Cl)c23)C1
- Ki [3]: 40 nM

Structure (SMILES): NCC1CN(c2nc(N)nc3c2oc2ncc(Cl)cc23)C1
- Ki [3]: 376 nM

Structure (SMILES): Nc1nc(N2CC(N)C2)c2oc3ncc(Cl)cc3c2n1
- Ki [3]: 613 nM

Structure (SMILES): CNC1CCN(c2nc(N)nc3c2oc2ccc(Cl)cc23)C1 (stereo not drawn)
- solubility [17]: 0.054 µM (≈ 0.0172 µg/mL)
- remaining at […] [1]: 100%
- Kb [2]: 10 nM
- Ki [3]: 0.9 nM
- remaining at […] [4]: 100%

Structure (SMILES): Nc1nc(N2C[C@@H]3C[C@H]2CN3)c2oc3ccccc3c2n1
- Ki [3]: 196 nM

Structure (SMILES): CN1CCN(c2nc(N)nc3c2oc2ccc(Cl)c(Cl)c23)CC1
- Ki [3]: 7.7 nM

Structure (SMILES): CN[C@H]1CCN(c2nc(N)nc3c2sc2ccc(Cl)cc23)C1
- Ki [3]: 76 nM

Structure (SMILES): CN[C@@H]1CCN(c2nc(N)nc3c2sc2cc(C(F)(F)F)ccc23)C1
- Ki [3]: 125 nM

Structure (SMILES): CN1CCN(c2ncnc3c2sc2ccccc23)CC1
- Ki [3]: 53 nM

Structure (SMILES): Nc1nc(N2CCNCC2)c2oc3cccc(Cl)c3c2n1
- Ki [3]: 1050 nM

Structure (SMILES): Nc1nc(N2CCC[C@H](N)C2)c2oc3ccc(C(F)(F)F)cc3c2n1
- Ki [3]: 42 nM

Structure (SMILES): CN[C@H]1CCN(c2nc(N)nc3c2oc2ccc(Cl)cc23)C1
- Ki [3]: 2 nM

Structure (SMILES): CN1CCN(CCCOc2ccc(-c3nc4cc(Cl)ccc4[nH]3)cc2)CC1
- Ki [3]: 120 nM

Structure (SMILES): CN[C@H]1CCN(c2nc(N)nc3c2sc2ccc(Br)cc23)C1
- Ki [3]: 65 nM

Structure (SMILES): Nc1nc(N2CCNCC2)c2oc3cccc(F)c3c2n1
- Ki [3]: 145 nM

Structure (SMILES): CN[C@@H]1CCN(c2nc(N)nc3c2oc2ccc(OC)cc23)C1
- Ki [3]: 11 nM

Structure (SMILES): Nc1nc(N2CCNCC2)c2oc3c(Cl)cc(Cl)cc3c2n1
- Ki [3]: 138 nM
